# In the NIST ThermoML archive (doi:10.1021/je7007582):
# Numbers after ± are expanded uncertainties.
# Settings: Liquid; for mass density: 298.15 K, 101.33 kPa, Pycnometric method; for Normal boiling temperature: Ebulliometric method (Recirculating still)
SMILES,mass density [kg/m3],Normal boiling temperature [°C]
CC(C)CO [2-methyl-1-propanol],797.8 ± 0.7,107.77 ± 0.05
CCCCO [butan-1-ol],805.7 ± 0.7,
CO [methanol],786.6 ± 0.7,64.49 ± 0.05

# The remaining lines, values ahead:
mass density [kg/m3],Normal boiling temperature [°C],SMILES
802.3 ± 0.7,99.48 ± 0.05,CCC(C)O (stereo not drawn) [butan-2-ol]
785.2 ± 0.7,78.31 ± 0.05,CCO [ethanol]
799.6 ± 0.7,97.06 ± 0.05,CCCO [propan-1-ol]
780.8 ± 0.7,82.2 ± 0.05,CC(C)O [propan-2-ol]
